# From patent US8987195B2 (priority 2012, dated 2015)
# Like-named read-outs stand apart in the source and are kept apart here.
# Key:
# HCV genotype 1b replicon = assay: HCV replicon assay, genotype 1b replicon EC50; format: cell-based, Hepatitis C virus; settings: read-out: EC50 [gt-1b]
# How it was run: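 Potency comes from a four-parameter fit of signal as percent of DMSO control. Replicon-bearing cells were treated 24-48 hours with a compound dilution series in absence of G418, and replicon RNA was quantified normalized to cyclophilin A RNA, or luciferase read.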
# [1] = target: HCV NS3/4A protease genotype 1b (Hepatitis C virus genotype 1b, UniProt P26663); assay: HCV NS3/4A protease time-resolved fluorescence (TRF) assay, Ki against genotype 1b; format: biochemical
# How it was run: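 Enzyme was pre-incubated 30 min with inhibitor in HEPES pH 7.5 buffer (150 mM NaCl, 15% glycerol, 10 mM DTT). Reaction ran 2.5 h at room temperature with 25 nM europium TRF peptide substrate, read at ex 340/em 615 nm. Enzyme levels: 0.2 nM (1b), 0.4 nM (A156T), 0.025 nM (3a). Ki came from four-parameter IC50 via IC50=Ki(1+[S]/KM).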
# [2] = Hepatitis C virus, genotype 1b replicon
# [3] = IC50 [gt-1b] (nM), NS3/4A genotype 1b, enzyme 0.2 nM
# [4] = Hepatitis C virus, HCV replicon, genotype 1b
# [5] = IC50 [gt-1b], NS3/4A protease TRF assay, genotype 1b enzyme 0.2 nM
# [6] = Hepatitis C virus, HCV replicon, genotype 1b, K+ salt
# [7] = IC50 [gt-1b], NS3/4A protease TRF assay, genotype 1b enzyme 0.2 nM, K+ salt
smiles,measurement,setting,value
"COc1ccc2nc(C(F)(F)F)c3c(c2c1)[C@@H](N1CCOCC1)C[C@]1(C[C@H]2C(=O)N[C@]4(C(=O)NS(=O)(=O)C5(C)CC5)C[C@H]4/C=C\CCCCC[C@H](NC(=O)OC(C)(C)C)C(=O)N2C1)O3 [Example 65, tert-Butyl((1′S,2R,6S,13aS,14aR,16aS,Z)-9′-methoxy-14a-(((1-methylcyclopropyl)sulfonyl)carbamoyl)-1′-morpholino-5,16-dioxo-5′-(trifluoromethyl) -1′,2′,3,5,6,7,8,9,10,11,13a,14,14a,15,16,16a-hexadecahydro-1H-spiro[cyclopropa[e]pyrrolo[1,2-a][1,4]diazacyclopentadecine-2,3′-pyrano[2,3-c]quinolin]-6-yl)carbamate]",EC50,HCV genotype 1b replicon; [2],0.148 nM
same,IC50,[1]; [3],0.011 nM
"COc1ccc2nc(C)c3c(c2c1)C(F)(F)C[C@]1(C[C@H]2C(=O)N[C@]4(C(=O)NS(=O)(=O)C5(C)CC5)C[C@H]4/C=C\CCCCC[C@H](NC(=O)OC(C)(C)C)C(=O)N2C1)O3 [Example 20, tert-Butyl (2S,6S,13aS,14aR,16aS,Z)-1′,1′-difluoro-9′-methoxy-5′-methyl-14a-(1-methylcyclopropylsulfonylcarbamoyl)-5,16-dioxo-1′,2′,3,5,6,7,8,9,10,11,13a,14,14a,15, 16,16a-hexadecahydro-1H-spiro[cyclopropa[e]pyrrolo[1,2-a][1,4]diazacyclopentadecine-2,3′-pyrano[2,3-c]quinoline]-6-ylcarbamate]",EC50,"HCV genotype 1b replicon; Hepatitis C virus, genotype 1b replicon, K+ salt",1.78 nM
same,IC50,"[1]; IC50 [gt-1b] (nM), NS3/4A genotype 1b, enzyme 0.2 nM, K+ salt",0.009 nM
"CCc1nc2ccc(OC)cc2c2c1O[C@]1(CC2)C[C@H]2C(=O)N[C@]3(C(=O)NS(=O)(=O)C4(C)CC4)C[C@H]3/C=C\CCCCC[C@H](NC(=O)c3sccc3F)C(=O)N2C1 [Example 490, (2R,6S,12Z,13aS,14aR,16aS)-5′-ethyl-6-{[(3-fluorothiophen-2-yl)carbonyl]amino}-9′-methoxy-N-[(1-methylcyclopropyl)sulfonyl]-5,16-dioxo-1,1′,2′,6,7,8,9,10,11,13a,14,15,16,16a-tetradecahydrospiro[cyclopropa[e]pyrrolo[1,2-a][1,4]diazacyclopentadecine-2,3′-pyrano[2,3-c]quinoline]-14a(5H)-carboxamide]",EC50,HCV genotype 1b replicon; [4],0.464 nM
same,IC50,[1]; [5],0.017 nM
"Cc1nc2cc(F)c(F)cc2c2c1O[C@]1(CC2)C[C@H]2C(=O)N[C@]3(C(=O)NS(=O)(=O)C4(C)CC4)C[C@H]3/C=C\CCCCC[C@H](NC(=O)OCC3CCC3)C(=O)N2C1 [Example 225, cyclobutylmethyl [(2R,6S,12Z,13aS,14aR,16aS)-8′,9′-difluoro-5′-methyl-14a-{[(1-methylcyclopropyl)sulfonyl]carbamoyl}-5,16-dioxo-1,1′,2′,5,6,7,8,9,10,11,13a,14,14a,15,16,16a-hexadecahydrospiro[cyclopropa[e]pyrrolo[1,2-a][1,4]diazacyclopentadecine-2,3′-pyrano[2,3-c]quinolin]-6-yl]carbamate]",EC50,HCV genotype 1b replicon; [2],12.5 nM
same,IC50,[1]; [3],0.031 nM
"Cc1nc2ccccc2c2c1O[C@]1(CC2)C[C@H]2C(=O)N[C@]3(C(=O)NS(=O)(=O)C4(C)CC4)C[C@H]3/C=C\CCCCC[C@H](NC(=O)OC(C)C(F)(F)F)C(=O)N2C1 (stereo partly drawn) [Example 241, 1,1,1-trifluoropropan-2-yl [(2R,6S,12Z,13aS,14aR,16aS)-5′-methyl-14a-{[(1-methylcyclopropyl)sulfonyl]carbamoyl}-5,16-dioxo-1,1′,2′,5,6,7,8,9,10,11,13a,14,14a,15,16,16a-hexadecahydrospiro[cyclopropa[e]pyrrolo[1,2-a][1,4]diazacyclopentadecine-2,3′-pyrano[2,3-c]quinolin]-6-yl]carbamate]",EC50,HCV genotype 1b replicon; genotype 1b replicon,2.9 nM
same,IC50,[1]; [3],0.012 nM
"COc1ccc2nc(C(F)(F)F)c3c(c2c1)CC[C@]1(C[C@H]2C(=O)N[C@]4(C(=O)NS(=O)(=O)C5(C)CC5)C[C@H]4/C=C\CCCCC[C@H](NC(=O)OCC(F)F)C(=O)N2C1)O3 [Example 499, 2,2-difluoroethyl [(2R,6S,12Z,13aS,14aR,16aS)-9′-methoxy-14a-{[(1-methylcyclopropyl)sulfonyl]carbamoyl}-5,16-dioxo-5′-(trifluoromethyl)-1,1′,2′,5,6,7,8,9,10,11,13a,14,14a,15,16,16a-hexadecahydrospiro[cyclopropa[e]pyrrolo[1,2-a][1,4]diazacyclopentadecine-2,3′-pyrano[2,3-c]quinolin]-6-yl]carbamate]",EC50,HCV genotype 1b replicon; [6],0.433 nM
same,IC50,[1]; [7],0.004 nM
"CC1(OC(=O)N[C@H]2CCCCC/C=C\[C@@H]3C[C@@]3(C(=O)NS(=O)(=O)C3(C)CC3)NC(=O)[C@@H]3C[C@]4(CCc5c(c(C6CC6)nc6ccccc56)O4)CN3C2=O)CCC1 [Example 111, 1-methylcyclobutyl [(2R,6S,12Z,13aS,14aR,16aS)-5′-cyclopropyl-14a-{[(1-methylcyclopropyl)sulfonyl]carbamoyl}-5,16-dioxo-1,1′,2′,5,6,7,8,9,10,11,13a,14,14a,15,16,16a-hexadecahydrospiro[cyclopropa[e]pyrrolo[1,2-a][1,4]diazacyclopentadecine-2,3′-pyrano[2,3-c]quinolin]-6-yl]carbamate]",EC50,HCV genotype 1b replicon; [2],0.685 nM
same,IC50,[1]; [3],0.011 nM
"CC(C)(OC(=O)N[C@H]1CCCCC/C=C\[C@@H]2C[C@@]2(C(=O)NS(=O)(=O)C2(C)CC2)NC(=O)[C@@H]2C[C@]3(CCc4c(c(C(F)(F)F)nc5ccc(Cl)cc45)O3)CN2C1=O)C(F)(F)F [Example 387, 1,1,1-trifluoro-2-methylpropan-2-yl [(2R,6S,12Z,13aS,14aR,16aS)-9′-chloro-14a-{[(1-methylcyclopropyl)sulfonyl]carbamoyl}-5,16-dioxo-5′-(trifluoromethyl)-1,1′,2′,5,6,7,8,9,10,11,13a,14,14a,15,16,16a-hexadecahydrospiro[cyclopropa[e]pyrrolo[1,2-a][1,4]diazacyclopentadecine-2,3′-pyrano[2,3-c]quinolin]-6-yl]carbamate]",EC50,HCV genotype 1b replicon; [4],20.1 nM
same,IC50,[1]; [5],0.038 nM
"COc1ccc2nc(C(C)C)c3c(c2c1)CC[C@]1(C[C@H]2C(=O)N[C@]4(C(=O)NS(=O)(=O)C5(C)CC5)C[C@H]4/C=C\CCCCC[C@H](NC(=O)OCC4COC4)C(=O)N2C1)O3 [Example 178, oxetan-3-ylmethyl [(2R,6S,12Z,13aS,14aR,16aS)-9′-methoxy-14a-{[(1-methylcyclopropyl)sulfonyl]carbamoyl}-5,16-dioxo-5′-(propan-2-yl)-1,1′,2′,5,6,7,8,9,10,11,13a,14,14a,15,16,16a-hexadecahydrospiro[cyclopropa[e]pyrrolo[1,2-a][1,4]diazacyclopentadecine-2,3′-pyrano[2,3-c]quinolin]-6-yl]carbamate]",EC50,HCV genotype 1b replicon; [2],11.1 nM
same,IC50,[1]; [3],0.007 nM
"CC(C)[C@H](C)OC(=O)N[C@H]1CCCCC/C=C\[C@@H]2C[C@@]2(C(=O)NS(=O)(=O)C2(C)CC2)NC(=O)[C@@H]2C[C@]3(CCc4c(c(C(F)(F)F)nc5ccc(OCCN6CCOCC6)cc45)O3)CN2C1=O [Example 474, (2S)-3-methylbutan-2-yl [(2R,6S,12Z,13aS,14aR,16aS)-14a-{[(1-methylcyclopropyl)sulfonyl]carbamoyl}-9′-[2-(morpholin-4-yl)ethoxy]-5,16-dioxo-5′-(trifluoromethyl)-1,1′,2′,5,6,7,8,9,10,11,13a,14,14a,15,16,16a-hexadecahydrospiro[cyclopropa[e]pyrrolo[1,2-a][1,4]diazacyclopentadecine-2,3′-pyrano[2,3-c]quinolin]-6-yl]carbamate]",EC50,HCV genotype 1b replicon; [4],1.73 nM
same,IC50,[1]; [5],0.033 nM
"COc1ccc2nc(C)c3c(c2c1)[C@H](F)C[C@]1(C[C@H]2C(=O)N[C@]4(C(=O)NS(=O)(=O)C5(C)CC5)C[C@H]4/C=C\CCCCC[C@H](NC(=O)OCC(C)C)C(=O)N2C1)O3 [Example 372, 2-methylpropyl [(1′R,2S,6S,12Z,13aS,14aR,16aS)-1′-fluoro-9′-methoxy-5′-methyl-14a-{[(1-methylcyclopropyl)sulfonyl]carbamoyl}-5,16-dioxo-1,1′,2′,5,6,7,8,9,10,11,13a,14,14a,15,16,16a-hexadecahydrospiro[cyclopropa[e]pyrrolo[1,2-a][1,4]diazacyclopentadecine-2,3′-pyrano[2,3-c]quinolin]-6-yl]carbamate]",EC50,HCV genotype 1b replicon; [6],2.12 nM
same,IC50,[1]; [7],0.01 nM
"COc1ccc2nc(C)c3c(c2n1)CC[C@]1(C[C@H]2C(=O)N[C@]4(C(=O)NS(=O)(=O)C5(C)CC5)C[C@H]4/C=C\CCCCC[C@H](NC(=O)OC(C)(C)C)C(=O)N2C1)O3 [Example 11, tert-butyl (2R,6S,13aS,14aR,16aS,Z)-2′-methoxy-6′-methyl-14a-(1-methylcyclopropylsulfonylcarbamoyl)-5,16-dioxo-3,5,6,7,8,9,9′,10,10′,11,13a,14,14a,15,16,16a-hexadecahydro-1H-spiro[cyclopropa[e]pyrrolo[1,2-a][1,4]diazacyclopentadecine-2,8′-pyrano[2,3-c][1,5]naphthyridine]-6-ylcarbamate]",EC50,HCV genotype 1b replicon; [2],2.71 nM
same,IC50,[1]; [3],0.007 nM
"CCc1ccc2nc(C)c3c(c2c1)C(F)C[C@]1(C[C@H]2C(=O)N[C@]4(C(=O)NS(=O)(=O)C5(C)CC5)C[C@H]4/C=C\CCCCC[C@H](NC(=O)OC(C)(C)C(F)(F)F)C(=O)N2C1)O3 (single isomer, unassigned) [Example 347]",EC50,HCV genotype 1b replicon; genotype 1b replicon,3060 nM
same,IC50,[1]; [3],0.981 nM
